Reference: patent US20240226066A1, “CARDIOPROTECTION BY AUTOPHAGY INDUCTION AND METABOLIC REPROGRAMMING” (UNIVERSITE PARIS-SACLAY, priority 2021, published 2024)

Experiments:
Assay type in all cases: cell-based, rat
[1] = tested on: BCL-XL; experiment: Western blot of BCL-XL expression in RNVCs; details: 6 h treatment
Protocol: Levels of protein expression of BCL-2 (FIG. 3A and FIG. 3B) BXL-XL (FIG. 3C) and BAX (FIG. 3C), in the RNVCs after 6 h of treatment (FIG. 3A, FIG. 3C, FIG. 3D) or 24 h (FIG. 3B). Co., untreated cell control. Each experiment was reproduced at least three times. Representative western blotting images and quantification of three independent experiments are presented as mean±SEM with single-factor ANOVA, with multiple Sidak comparisons. *, p<0.05 with respect to DMSO.
(§1) The H9C2 cells and RNVCs were detached in LB containing: 50 mM Tris, 150 mM NaCl, 1 mM EDTA, 0.5% deoxycholate, 1% Triton X 100, 0.1% SDS (pH 8.0). The cells were collected and placed on ice for 30 minutes. The cells were then centrifuged at 2000 g for 20 minutes at for 4° C. The supernatant was transferred to a new tube and stored on ice. The protein concentration was determined by BCA assay. The protein samples were diluted with sample buffer (2× Laemmli, Sigma), mixed, and heated for 5 minutes at 95° C. […] The images were recorded with a gel imaging system (Bio Rad). […]

[2] = tested on: RNVCs; experiment: Mitochondrial ROS production with MitoSOX fluorescent probe; details: 1 μM, 6 h
Protocol: FIG. 12: The RNVCs were treated with 0.1% DMSO, 3 μM rapamycin, 1 μM digitoxigenin, 1 μM digoxin, 1 μM minaprin, 1 μM VP331, 1 μM LOPA87, 10 μM SG6163F for 6 h, then the ROS production was stained with the MitoSOX fluorescent probe.
The RNVCs were treated with 0.01% DMSO, 3 μM rapamycin, […], 1 μM digoxin, 1 μM minaprine, 1 μM VP331, 1 μM LOPA87, 10 μM SG6163F in a serum-free cell culture medium for 6 hours. The contents (50 μg) of a MitoSOX™ mitochondrial superoxide indicator vial (ThermoFisher, M36008) were dissolved in 13 μl dimethyl sulfoxide (DMSO) to prepare a 5 mM MitoSOX™ reagent stock solution. Next, the 5 mM MitoSOX™ reagent stock solution in PBS was diluted to prepare a 5 μM working solution of MitoSOX™ reagent. After treatment, the cells were rinsed twice with hot PBS and then incubated with a MitoSOX reagent working solution for 10 minutes at 37° C. The cells were gently rinsed three times with hot PBS. Red fluorescence was detected with a Leica confocal microscope. Nuclear fluorescence was suppressed and mitochondrial fluorescence intensity was measured using ImageJ software.
ROSs are produced or accumulated as a by-product of mitochondrial activity metabolism. Thus, the ROSs may be a consequence of mitochondrial function or may reflect a defect in the mitochondrial antioxidant system.

[3] = tested on: LC3II; experiment: LC3 I/II conversion by western blot in RNVCs; details: 1 μM
Protocol: FIG. 4E: LC3-I/II protein levels in the RNVCs. Data are presented as mean±SEM with single-factor ANOVA, and multiple Sidak comparisons. *, p<0.05, **, p<0.01 with respect to DMSO.
as §1
(§2) Next, the hypothesis that the compounds could protect cardiac cells by activating autophagy, a catabolic process conserved in evolution that involves the degradation of damaged cytoplasmic components, was formulated. […] Then, the cells were treated with the hits and with H2O2 for 2 hours and their survival was analyzed 4 hours later by measuring LDH release (FIGS. 4B, 4C). […] In order to confirm the induction of autophagy by another approach, the RNVCs were transfected with a GFP-LC3 plasmid and the formation of the autophagosome was monitored 24 hours later. […]

[4] = tested on: RNVCs; experiment: Autophagosome formation after GFP-LC3 plasmid transfection (fluorescence microscopy); details: GFP-LC3 transfected RNVCs
Protocol: FIG. 4D: after transfection of the plasmid GFP-LC3, the fluorescent green GFP-LC3 spots were visualized by fluorescence microscopy and quantified with ImageJ to verify autophagosome formation. Data are presented as mean±SEM with single-factor ANOVA, and multiple Sidak comparisons. ***, p<0.001 with respect to 0.01% DMSO.
On day 0, 4×10^5 neonatal cardiomyocytes were plated overnight in laminin-coated 35 mm culture dishes (10 μg/ml). On day 1, the cells were transfected with 1 μg of GFP-LC3 plasmid using the transfection reagent Lipofectamine® 2000 (1 μg of GFP-LC3 corresponds to 2.5 μl of transfection reagent), for 48 h, then the green fluorescence was detected with a Leica confocal microscope (SP5). The analyses were carried out with the ImageJ program (Wayne Rasband, National Institutes of Health, USA).
as §2

## C[C@H]1O[C@@H](O[C@H]2[C@@H](O)C[C@H](O[C@H]3[C@@H](O)CC(O[C@H]4CC[C@@]5(C)[C@H](CC[C@@H]6[C@@H]5C[C@@H](O)[C@]5(C)[C@@H](C7=CC(=O)OC7)CC[C@]65O)C4)O[C@@H]3C)O[C@@H]2C)C[C@H](O)[C@@H]1O (stereo partly shown) [digoxin]
[1]
  expression of BCL-XL: caused a decrease

## C[C@]12CC[C@H](O)C[C@H]1CC[C@@H]1[C@@H]2CC[C@]2(C)[C@@H](C3=CC(=O)OC3)CC[C@]12O [digitoxigenin]
[2]
  local level of mitochondrial superoxide anion: induced an elevation

## O=C1NC(c2ccccc2)=N/C1=C\c1cc2ccccc2c2ccccc12 [SG6163F]
[3]
  increase in level of expression of LC3II: > 1.5 fold
[4]
  formation of autophagosomes: capable of causing the formation of autophagosomes
